This passage reports IC50 results from patent US20040248953A1, “3-Arylsulfanyl and 3-heteroarylsulfanyl substituted benzo[b]thiophenes as therapeutic agents” (priority 2003, published 2004).

T1 sequence (P48736 whole entry, species assumed): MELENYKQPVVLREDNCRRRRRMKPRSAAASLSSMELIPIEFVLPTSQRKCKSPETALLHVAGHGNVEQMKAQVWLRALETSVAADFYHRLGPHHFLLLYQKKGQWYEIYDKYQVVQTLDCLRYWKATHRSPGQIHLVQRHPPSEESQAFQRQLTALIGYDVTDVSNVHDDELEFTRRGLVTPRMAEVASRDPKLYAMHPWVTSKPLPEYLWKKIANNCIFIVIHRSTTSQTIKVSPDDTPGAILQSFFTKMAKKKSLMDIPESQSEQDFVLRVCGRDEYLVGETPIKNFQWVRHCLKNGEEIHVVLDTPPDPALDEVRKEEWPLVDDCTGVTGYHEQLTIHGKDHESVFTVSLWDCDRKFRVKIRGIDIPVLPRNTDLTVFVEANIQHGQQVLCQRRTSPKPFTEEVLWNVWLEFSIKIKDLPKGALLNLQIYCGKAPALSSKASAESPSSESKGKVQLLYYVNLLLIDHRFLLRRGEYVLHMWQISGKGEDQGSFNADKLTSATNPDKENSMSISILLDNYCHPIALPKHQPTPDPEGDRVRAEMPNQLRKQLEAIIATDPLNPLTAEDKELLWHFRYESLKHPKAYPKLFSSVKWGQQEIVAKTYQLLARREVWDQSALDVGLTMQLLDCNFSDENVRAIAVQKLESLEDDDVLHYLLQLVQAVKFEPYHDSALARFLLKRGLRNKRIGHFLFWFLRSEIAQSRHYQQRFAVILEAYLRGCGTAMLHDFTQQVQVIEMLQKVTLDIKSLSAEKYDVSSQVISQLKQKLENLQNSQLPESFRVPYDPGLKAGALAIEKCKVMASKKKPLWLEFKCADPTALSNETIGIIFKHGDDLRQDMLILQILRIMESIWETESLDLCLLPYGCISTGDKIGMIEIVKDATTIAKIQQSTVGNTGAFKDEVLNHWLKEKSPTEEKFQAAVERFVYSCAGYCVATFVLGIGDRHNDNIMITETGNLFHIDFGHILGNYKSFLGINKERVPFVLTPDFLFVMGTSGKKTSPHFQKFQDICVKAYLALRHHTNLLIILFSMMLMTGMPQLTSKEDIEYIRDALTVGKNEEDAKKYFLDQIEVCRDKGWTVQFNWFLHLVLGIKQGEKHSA
T1 sequence (Q8WYR1 whole entry partner, species assumed): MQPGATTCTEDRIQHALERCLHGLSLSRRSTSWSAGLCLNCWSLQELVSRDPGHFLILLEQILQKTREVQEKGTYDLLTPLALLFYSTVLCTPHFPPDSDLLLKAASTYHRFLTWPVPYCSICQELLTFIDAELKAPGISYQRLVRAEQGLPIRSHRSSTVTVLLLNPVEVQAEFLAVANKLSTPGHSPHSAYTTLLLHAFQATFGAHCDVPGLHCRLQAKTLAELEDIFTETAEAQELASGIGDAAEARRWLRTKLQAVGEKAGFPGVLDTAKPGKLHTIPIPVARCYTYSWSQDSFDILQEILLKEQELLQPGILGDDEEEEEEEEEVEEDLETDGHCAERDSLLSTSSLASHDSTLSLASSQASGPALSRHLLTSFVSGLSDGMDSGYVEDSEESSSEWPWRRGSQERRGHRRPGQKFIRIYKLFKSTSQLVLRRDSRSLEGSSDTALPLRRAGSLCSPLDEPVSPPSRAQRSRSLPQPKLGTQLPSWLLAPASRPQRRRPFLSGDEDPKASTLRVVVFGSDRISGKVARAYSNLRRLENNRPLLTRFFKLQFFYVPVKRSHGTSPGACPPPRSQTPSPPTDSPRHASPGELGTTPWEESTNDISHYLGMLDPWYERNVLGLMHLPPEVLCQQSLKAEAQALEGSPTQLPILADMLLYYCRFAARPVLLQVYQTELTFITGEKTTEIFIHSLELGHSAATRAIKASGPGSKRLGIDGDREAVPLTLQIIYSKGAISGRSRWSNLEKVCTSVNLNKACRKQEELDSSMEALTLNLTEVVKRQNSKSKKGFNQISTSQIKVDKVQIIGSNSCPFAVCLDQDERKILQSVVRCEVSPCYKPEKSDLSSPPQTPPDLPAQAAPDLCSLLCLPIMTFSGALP

The assay concerns the target T1, PI3Kγ (Homo sapiens, UniProt P48736).
T1 construct: HA; made in house; host or cells: Spodoptera frugiperda (Sf9) cells, baculovirus coinfection
Nature of the assay: PI3Kγ in vitro kinase assay (32P-ATP, PIP2 lipid micelles, filter plate). Format: biochemical. The note with it: purified recombinant p101/p110γ protein with G protein β1/γ2 subunits; 20 μM ATP; 25 μM PIP2; 20 minutes at room temperature. How it is done: Spodtera frugiperda cells, grown in ESF921 media, were coinfected with baculovirus expressing a glu-tagged p101 and baculovirus expressing an HA-tagged p110γ, at a 3:1 ratio of p101 baculovirus to p110γ baculovirus. Sf9 cells were grown to 1×10^7 total cells/mL in 10 L bioreactors and harvested 48-72 hours post infection. Samples of infected cells were then tested for expression of p101/p110γ PI3 kinase by immunoprecipitation and Western Blot analysis methods (see below). To purify PI3Kγ, 4 volumes of room temperature hypotonic lysis buffer (1 mM MgCl2, 1 mM DTT, 5 mM EGTA, 1 mM Pefabloc, 0.5 μM aprotinin, 5 μM leupeptin, 2 μM pepstatin, 5 μM E64, pH 8) per gram of cell paste, was poured onto frozen cell pellets with stirring, then lysed in a nitrogen “bomb” at 400 psi (599HC […], Parr Instrument Co, Moline, Ill.). NaCl was added to 150 mM, and sodium cholate was added to 1% and mixed for another 45 minutes. The lysates were clarified by centrifugation for 25 minutes at 14,000 rpm. The lysates were then loaded over anti-glu-linked Protein-G Sepaharose beads (Covance Research Products, Richmond, Calif.) using 20 mL resin/50 g cell paste. The column was washed with 15 volumes of wash buffer (1 mM DTT, 0.2 mM EGTA, 1 mM Pefabloc, 0.5 μM aprotinin, 5 μM leupeptin, 2 μM pepstatin, 5 μM E64, 150 mM NaCl, 1% sodium cholate, pH 8). PI3Kγ was eluted with 6 column volumes of wash buffer that contain 100 μg/mL of a peptide that competes for binding of the glu tag. The column fractions with the eluted protein (determined by taking OD280 readings) were collected and dialyzed in 0.2 mM EGTA, 1 mM DTT, 1 mM Pefabloc, 5 μM leupeptin, 0.5% sodium cholate, 150 mM NaCl, and 50% glycerol, pH 8. The fractions were stored at -80° C. until further use. Spodtera frugiperda cells were coinfected with baculovirus expressing a glu-tagged G protein β1 and baculovirus expressing a […], at a 1:1 ratio of glu-tagged G protein β1 baculovirus to G protein β2 baculovirus. Sf9 cells are grown in 10 L bioreactors and harvested 48-72 hours post infection. Samples of infected cells were tested for G protein β1/β2 expression by Western Blot analysis, as described below. Cell lysates were homogenized and loaded onto a column of glu-tagged beads as in Biological Example 1 and competed off the column with a glu peptide and processed as described in Biological Example 1. The inhibitory properties of the compounds in Table 1 were assayed in an in vitro PI3K assay. In a 96-well polypropylene plate, each well was spotted with […] of 50 times the desired final concentration of compound in DMSO. Purified recombinant p101/p110γ protein (0.03 μg; 2.7 nM) and G protein β1/γ2 subunits (0.09 μg; 57.7 nM) for each reaction was combined in the assay buffer (30 mM HEPES, 100 mM NaCl, 1 mM EGTA, and 1 mM DTT). ATP and [γ-^32P-ATP] (0.09 μCi) were added to this mixture so that the final ATP concentration in the reaction was 20 μM. Lipid micelles were formed by sonicating phosphatidylinositol4,5-diphosphate (PIP2), phosphatidylethanolamine (PE), and Na-cholate in the assay buffer for 10 minutes, adding MgCl2 and incubating on ice for 20 minutes, for final concentrations of 25 μM PIP2, 300 μM PE, 0.02% Na-cholate, and 10 mM MgCl2 in the reaction. The reactions were started by adding equal volumes lipid and enzyme mixture in a total volume of 50 μL, allowed to run for 20 minutes at room temperature, and stopped with 100 μL 75 mM H3PO4. The lipid product was transferred to a glass fiber filter plate and washed with 75 mM H3PO4 several times. The presence of radioactive lipid product (PIP3) was measured by adding Wallac Optiphase mix to each well and counting in a Wallac 1450 Trilux plate reader (PerkinElmer Life Sciences Inc., Boston, Mass. 02118). The IC50 for each compound tested is reported in μM in Table 1: […]
A word on the IC50: it is the concentration that gives 50% inhibition. For the compound `COC(=O)Cc1ccc(Sc2c(C(=O)Nc3nnn[nH]3)sc3cc(OC)c(OC)cc23)cc1` [Example 49, {4-[5,6-Dimethoxy-2-(1H-tetrazol-5-ylcarbamoyl)-benzo[b]thiophen-3-ylsulfanyl]-phenyl}-acetic acid methyl ester], the half-maximal inhibitory concentration (IC50) is 1290 nM.

Consider `COc1cc2sc(C(=O)Nc3nnn[nH]3)c(Sc3ccc(CC(=O)O)cc3)c2cc1C` [Example 59, {4-[6-Methoxy-5-methyl-2-(1H-tetrazol-5-ylcarbamoyl)-benzo[b]thiophen-3-ylsulfanyl]-phenyl}-acetic acid], for which the IC50 was determined as 1320 nM.

For `CCOc1ccc2sc(C(=O)Nc3nnn[nH]3)c(Sc3ccc(CCC(=O)O)cc3)c2c1` [Example 64, 3-{4-[5-Ethoxy-2-(1H-tetrazol-5-ylcarbamoyl)-benzo[b]thiophen-3-ylsulfanyl]-phenyl}-propionic acid], the IC50 was 3620 nM.

`COc1cc2sc(C(=O)Nc3nnn[nH]3)c(Sc3ccc(CC(=O)O)cc3)c2cc1OC` [Example 61, {4-[5,6-Dimethoxy-2-(1H-tetrazol-5-ylcarbamoyl)-benzo[b]thiophen-3-ylsulfanyl]-phenyl}-acetic acid]: the IC50 came to 2610 nM.

On to `COc1ccc(OC)c(Sc2c(C(=O)Nc3nnn[nH]3)sc3cc(OC)c(OC)cc23)c1` [Example 15, 3-(2,5-dimethoxy-phenylsulfanyl)-5,6-dimethoxy-benzo[b]thiophene-2-carboxylic acid(1H-tetrazol-5-yl)-amide], for which the half-inhibitory concentration (IC50) was 620 nM.

With `COC(=O)CCc1ccc(Sc2c(C(=O)Nc3nnn[nH]3)sc3cc(OC)c(C)cc23)cc1` [Example 41, 3-{4-[6-Methoxy-5-methyl-2-(1H-tetrazol-5-ylcarbamoyl)-benzo[b]thiophen-3-ylsulfanyl]-phenyl}-propionic acid methyl ester], the concentration for half-maximal inhibition (IC50) worked out at 4080 nM.

In the case of `COc1cc2sc(C(=O)Nc3nnn[nH]3)c(Sc3cccc(Cl)c3)c2cc1OC` [Example 7, 3-(3-chloro-phenylsulfanyl)-5,6-dimethoxy-benzo[b]thiophene-2-carboxylic acid(1H-tetrazol-5-yl)-amide], the half-maximal inhibitory concentration (IC50) worked out at 1990 nM.

As to `COc1cc2c(Sc3ccc(O)cc3)c(C(=O)Nc3nnn[nH]3)sc2cc1C` [Example 30, 3-(4-Hydroxy-phenylsulfanyl)-5-methoxy-6-methyl-benzo[b]thiophene-2-carboxylic acid(1H-tetrazol-5-yl)-amide], the half-maximal inhibitory concentration (IC50) is 625 nM.

Turning to `COc1cc2sc(C(=O)Nc3nnn[nH]3)c(Sc3cccc(Cl)c3Cl)c2cc1OC` [Example 10, 3-(2,3-dichloro-phenylsulfanyl)-5,6-dimethoxy-benzo[b]thiophene-2-carboxylic acid(1H-tetrazol-5-yl)-amide], the IC50 was found to be 1130 nM.

Take `COc1cc2sc(C(=O)Nc3nnn[nH]3)c(Sc3ccc(CCC(=O)O)cc3)c2cc1OC` [Example 62, 3-{4-[5,6-Dimethoxy-2-(1H-tetrazol-5-ylcarbamoyl)-benzo[b]thiophen-3-ylsulfanyl]-phenyl}-propionic acid]: the half-maximal inhibitory concentration (IC50) came out at 2670 nM.

Consider `COc1cc2sc(C(=O)Nc3nnn[nH]3)c(Sc3ccc(Cl)c(Cl)c3)c2cc1OC` [Example 12, 3-(3,4-dichloro-phenylsulfanyl)-5,6-dimethoxy-benzo[b]thiophene-2-carboxylic acid(1H-tetrazol-5-yl)-amide], for which the IC50 was 1230 nM.

Consider `COc1cc2sc(C(=O)Nc3nnn[nH]3)c(Sc3ccc(C)cc3C)c2cc1OC` [Example 9, 3-(2,4-dimethyl-phenylsulfanyl)-5,6-dimethoxy-benzo[b]thiophene-2-carboxylic acid(1H-tetrazol-5-yl)-amide], for which the IC50 was found to be 2800 nM.

Turning to `COc1cc2sc(C(=O)Nc3nnn[nH]3)c(Sc3cccc(O)c3)c2cc1C` [Example 39, 3-(3-Hydroxy-phenylsulfanyl)-6-methoxy-5-methyl-benzo[b]thiophene-2-carboxylic acid(1H-tetrazol-5-yl)-amide], the half-maximal inhibitory concentration (IC50) stood at 980 nM.
